In ChEMBL document CHEMBL2417513, “Selective activity of 2,4-diaryl-1,2,3,4-tetrahydroquinolines on Trypanosoma cruzi epimastigotes and amastigotes expressing β-galactosidase” (Bioorg Med Chem Lett, 2013):
pIC50: −log10 of the molar value.

Legend:
[1] = Cytotoxicity against mouse NCTC-929 cells after 48 hrs by resazurin based fluorescence assay; format: cell-based; conditions: for LC50: nctc-929, 48 h; for CC50 at 48 h: NCTC-929 cells, read-out: LC50
Trypanosoma cruzi [2] = experiment: Antiparasitic activity against epimastigotes of Trypanosoma cruzi CL Brener expressing Escherichia coli lacZ gene […] assessed as parasite growth inhibition after 72 hrs by colorimetric assay; format: functional, organism-based
[3] = Cytotoxicity against mouse NCTC-929 cells at 256 uM after 48 hrs by resazurin based fluorescence assay; format: cell-based; conditions: nctc-929, 48 h
Trypanosoma cruzi [4] = experiment: Antiparasitic activity against epimastigotes of Trypanosoma cruzi CL Brener expressing Escherichia coli lacZ gene […] assessed as parasite growth inhibition at 32 uM after 72 hrs by colorimetric assay; format: functional; design: scale not given: the % may be the effect or the level left
[5] = Selectivity index, ratio of LC50 for mouse NCTC-929 cells to IC50 for epimastigotes of Trypanosoma cruzi CL Brener; format: toxicity, cell-based; conditions: read-out: Ratio LC50/IC50
Trypanosoma cruzi [6] = experiment: Antiparasitic activity against amastigotes of Trypanosoma cruzi CL Brener expressing Escherichia coli lacZ gene infected in mouse NCTC-929 cells assessed as parasite growth inhibition at 2 uM after 7 days by colorimetric assay; format: functional; design: scale not given: the % may be the effect or the level left
Trypanosoma cruzi [7] = experiment: Antiparasitic activity against amastigotes of Trypanosoma cruzi CL Brener expressing Escherichia coli lacZ gene infected in mouse NCTC-929 cells assessed as parasite growth inhibition at 16 uM after 7 days by colorimetric assay; format: functional; design: scale not given: the % may be the effect or the level left
Trypanosoma cruzi [8] = experiment: Antiparasitic activity against amastigotes of Trypanosoma cruzi CL Brener expressing Escherichia coli lacZ gene infected in mouse NCTC-929 cells assessed as parasite growth inhibition at 8 uM after 7 days by colorimetric assay; format: functional; design: scale not given: the % may be the effect or the level left
Trypanosoma cruzi [9] = experiment: Antiparasitic activity against amastigotes of Trypanosoma cruzi CL Brener expressing Escherichia coli lacZ gene infected in mouse NCTC-929 cells assessed as parasite growth inhibition at 32 uM after 7 days by colorimetric assay; format: functional; design: scale not given: the % may be the effect or the level left
[10] = Selectivity index, ratio of LC50 for mouse NCTC-929 cells to IC50 for amastigotes of Trypanosoma cruzi CL Brener; format: toxicity, cell-based; conditions: read-out: Ratio LC50/IC50
Trypanosoma cruzi [11] = experiment: Antiparasitic activity against amastigotes of Trypanosoma cruzi CL Brener expressing Escherichia coli lacZ gene infected in mouse NCTC-929 cells assessed as parasite growth inhibition after 7 days by colorimetric assay; format: functional, organism-based; conditions: NCTC-929, 168 h
Trypanosoma cruzi [12] = experiment: Antiparasitic activity against amastigotes of Trypanosoma cruzi CL Brener expressing Escherichia coli lacZ gene infected in mouse NCTC-929 cells assessed as parasite growth inhibition at 4 uM after 7 days by colorimetric assay; format: functional; design: scale not given: the % may be the effect or the level left
Trypanosoma cruzi [13] = experiment: Antiparasitic activity against amastigotes of Trypanosoma cruzi CL Brener expressing Escherichia coli lacZ gene infected in mouse NCTC-929 cells assessed as parasite growth inhibition at 0.5 uM after 7 days by colorimetric assay; format: functional; design: scale not given: the % may be the effect or the level left
Trypanosoma cruzi [14] = experiment: Antiparasitic activity against amastigotes of Trypanosoma cruzi CL Brener expressing Escherichia coli lacZ gene infected in mouse NCTC-929 cells assessed as parasite growth inhibition at 1 uM after 7 days by colorimetric assay; format: functional; design: scale not given: the % may be the effect or the level left

Compound	LC50 [1]	pIC50 (Trypanosoma cruzi [2])	Activity [3]	Activity (Trypanosoma cruzi [4])	selectivity ratio [5]	CC50 at 48 h [1]	Activity (Trypanosoma cruzi [6])	Activity (Trypanosoma cruzi [7])	Activity (Trypanosoma cruzi [8])	Activity (Trypanosoma cruzi [9])	selectivity ratio [10]	pIC50 (Trypanosoma cruzi [11])	Activity (Trypanosoma cruzi [12])	Activity (Trypanosoma cruzi [13])	Activity (Trypanosoma cruzi [14])
COc1ccc([C@@H]2c3ccc([N+](=O)[O-])cc3N[C@H](c3ccccc3)[C@H]2C)cc1	ND(Insoluble)	> 5.10	8.43%	83.67%	–	–	–	–	–	–	–	–	–	–	–
COc1ccc([C@@H]2c3cc(N)ccc3N[C@H](c3ccccc3)[C@H]2C)cc1	–	> 5.10	85.85%	97.06%	> 1.19	9.56 µM	–	–	–	–	–	–	–	–	–
COc1ccc([C@@H]2c3cccc(N)c3N[C@H](c3ccccc3)[C@H]2C)cc1	ND(Insoluble)	> 5.10	66.33%	79.95%	–	–	–	–	–	–	–	–	–	–	–
COc1ccc([C@@H]2c3ccccc3N(Cc3ccccc3)C[C@H]2C)cc1	ND(Insoluble)	–	42.15%	14.08%	–	–	–	–	–	–	–	–	–	–	–
COc1ccc([C@@H]2c3cc(OC)ccc3N(Cc3ccccc3)C[C@H]2C)cc1	–	5.12	25.02%	88.64%	> 33.4	> 256 µM	25.86%	100%	100%	100%	> 59.9	5.37	46.33%	–	–
COc1ccc([C@@H]2c3cc(Cl)ccc3N(Cc3ccccc3)C[C@H]2C)cc1	–	5.19	ND(Insoluble)	100%	3.69	23.6 µM	–	–	–	–	–	–	–	–	–
COc1cc([C@@H]2c3cccc([N+](=O)[O-])c3N[C@H](c3ccccc3)[C@H]2C)ccc1O	–	> 5.10	84.75%	86.78%	–	< 8 µM	–	–	–	–	–	–	–	–	–
COc1cc([C@@H]2c3ccccc3N[C@H](c3ccccc3)[C@H]2C)ccc1O	–	> 5.10	84.12%	86.23%	> 1.63	13 µM	–	–	–	–	–	–	–	–	–
COc1cc([C@@H]2c3cccc(C#N)c3N[C@H](c3ccccc3)[C@H]2C)ccc1O	–	5.08	86.23%	95.56%	0.93	7.75 µM	–	–	–	–	–	–	–	–	–
COc1cc([C@@H]2c3cccc([N+](=O)[O-])c3N[C@H](c3ccc(O)cc3)[C@H]2C)ccc1O	–	> 5.10	85.46%	99.73%	> 1.79	14.4 µM	–	–	–	–	–	–	–	–	–
COc1cc([C@@H]2c3cccc(N)c3N[C@H](c3ccccc3)[C@H]2C)ccc1O	–	> 5.10	86.9%	98.7%	–	< 8 µM	–	–	–	–	–	–	–	–	–
COc1cc([C@@H]2c3cccc(C#N)c3N[C@H](c3ccc(O)cc3)[C@H]2C)ccc1O	–	> 5.10	85.83%	98.75%	1.59	12.8 µM	–	–	–	–	–	–	–	–	–
COc1cc([C@@H]2c3cccc([N+](=O)[O-])c3N[C@H](c3ccc([N+](=O)[O-])cc3)[C@H]2C)ccc1O	–	> 5.10	87.71%	92.82%	–	< 8 µM	–	–	–	–	–	–	–	–	–
COc1cc([C@@H]2c3cccc([N+](=O)[O-])c3N[C@H](c3ccccc3[N+](=O)[O-])[C@H]2C)ccc1O	–	–	ND(Insoluble)	82.19%	–	15.9 µM	–	–	–	–	–	–	–	–	–
COc1cc([C@@H]2c3cccc(C#N)c3N[C@H](c3ccc([N+](=O)[O-])cc3)[C@H]2C)ccc1O	–	5.36	48.76%	66.81%	48.6	213 µM	–	–	51.5%	–	27.8	5.12	33.77%	–	–
COc1ccc([C@@H]2c3ccccc3N[C@H](c3ccccc3)[C@H]2C)cc1	–	5.23	43.05%	95.98%	> 43.1	> 256 µM	–	99.12%	52.21%	100%	> 36	5.15	–	–	–
CCc1ccc2c(c1)[C@@H](c1ccc(OC)cc1)[C@H](C)[C@@H](c1ccccc1)N2	–	5.44	0%	95.85%	> 71.1	> 256 µM	–	47.35%	58.63%	63.72%	> 35.9	5.15	19.11%	–	–
COc1ccc([C@@H]2c3cc(OC)ccc3N[C@H](c3ccccc3)[C@H]2C)cc1	–	> 5.10	0%	53.99%	> 32	> 256 µM	–	60.71%	58.12%	–	> 32	> 5.10	–	–	–
COc1ccc([C@@H]2c3cc([N+](=O)[O-])ccc3N[C@H](c3ccccc3)[C@H]2C)cc1	–	> 5.10	ND(Insoluble)	76.03%	> 2	16 µM	–	–	–	–	–	–	–	–	–
COc1ccc([C@@H]2c3cc(Cl)ccc3N[C@H](c3ccccc3)[C@H]2C)cc1	ND(Insoluble)	5.10	11.72%	88.62%	–	–	–	–	–	–	–	–	–	–	–
COc1ccc([C@@H]2c3cccc([N+](=O)[O-])c3N[C@H](c3ccccc3)[C@H]2C)cc1	–	–	ND(Insoluble)	87.22%	–	28.4 µM	–	–	–	–	–	–	–	–	–
COc1ccc([C@@H]2c3c(cccc3[N+](=O)[O-])N[C@H](c3ccccc3)[C@H]2C)cc1	–	> 5.10	ND(Insoluble)	78.69%	> 3.45	27.6 µM	–	–	–	–	–	–	–	–	–
O=C(Cn1ccnc1[N+](=O)[O-])NCc1ccccc1 [BENZNIDAZOLE]	–	4.57	17.38%	66.24%	> 9.44	> 256 µM	64.37%	100%	96.63%	100%	> 320	6.10	74.71%	41.64%	55.64%
